Experimental data: patent US4738971A, “N-aryl-1,2-dihydro-4-substituted-1-alkyl-2-oxo-quinoline-3-carboxamides” (priority 1981, dated 1988)
Like-named read-outs stand apart in the source and are kept apart here.

What was measured:
[1] = test system: delayed hypersensitivity reaction (adjuvant arthritis, Mycobacterium butyricum); experiment: adjuvant arthritis test in rats; type: in vivo, rat (male Lister hooded); settings: for change in vivo at 40 mg/kg: Rattus norvegicus, po, 336 h, read-out: Increase of the volume of the left foot
From the text: (§1) The adjuvant arthritis test in rats produces a measureable extent of a delayed hypersensitivity reaction and can be used for a determination of variations in the extent of the delayed hypersensitivity reaction upon drug administration to the host. An increase in the extent of the delayed hypersensitivity reaction upon drug administration consequently indicates enhanced cell-mediated immunity in the host.
This example illustrates the effect of the compounds of the general formula I in the adjuvant arthritis test in rats.
as §1, with “produces” for “produces a measureable extent of”, “variations” for “variations in the extent”
A modification of a method described in (12) was used. Male Lister hooded rats weighing 250-275 g were used. At least 9 animals were used in each experimental group.
A single intradermal injection of 0.5 mg/0.1 ml heat killed Mycobacterium butyricum suspended in sterile liquid paraffinum was given into the right hind foot of all rats. After this injection, day 0, the volume of the left hind paw, measured by water displacement, was followed to the end of the experiment.
The substances suspended in aqueous methocel solution 10 ml/kg were given intragastrically. The control group was given methocel solution 10 ml/kg. The different groups of animals were thus treated once daily from day -4 to day 14. The effect of the substances was assessed by the left foot volume expressed in percent after comparison with the control groups.

[2] = test system: carrageenan-induced edema; experiment: carrageenan edema test in rats; type: in vivo, rat (female Sprague-Dawley); settings: for change in vivo at 80 mg/kg: Rattus norvegicus, po, 80 mg/kg p.o., 30 min before carrageenan, edema weight 3 h after, vs control, preliminary, read-out: Potentiation of the carrageenan edema, %; for significant potentiation of the carrageenan edema: dose within the range 10-160 mg/kg p.o.
From the text: Another test, in which the effect of a drug corresponds to the effects obtained in the tests mentioned above, and which can therefore also be used, is the well-established carrageenan edema test in rats (5). Comparative evaluation of compounds of the present invention in the three tests mentioned has shown that compounds which increase the extent of the delayed hypersensitivity reaction in the pertussis vaccine pleurisy test and in the adjuvant arthritis test also increase the extent of carrageenan-induced edema in the carrageenan edema test, thus providing a further tool for the determination of enhancement of cell-mediated immunity.
This example illustrates the effect of the compounds of the general formula I in the carrageenan edema test in rats.
A modification of a method described in (5) was used. Female Sprague-Dawleyrats weighing 110-120 g was used. At least 10 animals were used in each experimental group. Foot edema was induced by injecting carrageenan in 0.9% NaCl into the plantar surface of the right hind paw of the rats.
The substances suspended in aqueous methocel solution 10 ml/kg were administered intragastrically 30 minutes before the injection of carrageenan. The control groups were given methocel solution 10 ml/kg.
Three hours after carrageenan injection the animals were killed. The hind feet were cut off and weighed. The difference in weight of the injected right paw and the uninjected left paw was called edema weight.
The effect of the substances was assessed by the edema weight expressed in percent after comparison with the control groups.

[3] = test system: delayed hypersensitivity reaction (pertussis vaccine pleurisy); experiment: pertussis vaccine pleurisy test in rats; type: in vivo, rat (male Sprague-Dawley); settings: for change in vivo at 10 mg/kg: Rattus norvegicus, po, 48 h, read-out: Enhancement of the delayed hypersensitivity reaction assessed by the exudate vol.
From the text: A useful test for the evaluation of the effect of chemical compounds on the immune system is the pertussis vaccine pleurisy test in rats. Compounds which enhance the response in this delayed hypersensitivity reaction are considered to stimulate cell-mediated immunity (4).
This example illustrates the effect of the compounds of the general formula I in the pertussis vaccine pleurisy test.
Pertussis vaccine pleurisy is a useful test for the evaluation of the effect of chemical compounds on the immune system. Compounds which enhance the response in this delayed hypersensitivity reaction are considered to stimulate cell-mediated immunity.
A modification of a method described in (4) was used. Male Sprague-Dawley rats weighing 250-275 g were used. At least ten animals were used in each group.
Equal volumes of Freund's incomplete adjuvant and a suspension of heat killed Bordetella pertussis organisms were mixed. To sensitize animals, day 0, 0.2 ml of a mixture containing 0.036×10^10 organisms/ml was injected into the dorsal surface of one hind paw and one forepaw.
The animals were challenged on day 12 with 0.1 ml of a mixture containing 0.25×10^10 organisms/ml that was injected intrapleurally. 48 hours after challenge, day 14, the volume of the exudate in the pleural cavity was measured.
The substances suspended in aqueous methocel solution 10 ml/kg were given intragastrically once daily from day 10 to day 13. The control groups were given methocel solution 10 ml/kg.
The effect of the substances was assessed by the exudate volume expressed in percent after comparison with the control groups.

[4] = 10 mg/kg p.o., once daily day 10 to day 13, vs control, preliminary

Compound	significant potentiating effect in the adjuvant arthritis test ([1]; 40 mg/kg p.o.)	significant enhancing effect in the pertussis vaccine pleurisy test ([3]; 10 mg/kg p.o.)	significant potentiation of the carrageenan edema [2]	further results
O=C(Nc1ccccc1)c1c(O)c2cccc3c2n(c1=O)CC3 [2:2, N-phenyl-1,2-dihydro-1,8-ethylene-4-hydroxy-2-oxo-quinoline-3-carboxamide]				change in vivo at 40 mg/kg ([1]; 40 mg/kg p.o., once daily day -4 to day 14, vs control, preliminary): 40%; change in vivo at 80 mg/kg [2]: 43%; change in vivo at 10 mg/kg [3, 4]: 64%
COc1cccc(N(C)C(=O)c2c(O)c3cc(C)ccc3n(C(C)C)c2=O)c1 [21:17, N-(3-methoxyphenyl)-N-methyl-1,2-dihydro-4-hydroxy-1-isopropyl-6-methyl-2-oxo-quinoline-3-carboxamide]	significant potentiating effect	significant enhancing effect		
COc1ccc(N(C)C(=O)c2c(O)c3cccc4c3n(c2=O)CC4)cc1 [21:28, N-(4-methoxyphenyl)-N-methyl-1,2-dihydro-1,8-ethylene-4-hydroxy-2-oxo-quinoline-3-carboxamide]	significant potentiating effect	significant enhancing effect		
CCN(C(=O)c1c(O)c2cc(N(C)C)ccc2n(C)c1=O)c1ccccn1 [21:26, N-ethyl-N-2-pyridyl-1,2-dihydro-6-dimethylamino-4-hydroxy-1-methyl-2-oxo-quinoline-3-carboxamide]	significant potentiating effect	significant enhancing effect		
CN(C(=O)c1c(O)c2ccccc2n(-c2ccc(F)cc2)c1=O)c1ccc(N2CCCC2)cc1 [21:19, N-methyl-N-(4-pyrrolidinophenyl)-1-(4-fluorophenyl)-1,2-dihydro-4-hydroxy-2-oxo-quinoline-3-carboxamide]	significant potentiating effect			
CC(=O)Nc1ccc(N(C)C(=O)c2c(O)c3ccccc3n(C)c2=O)cc1 [20:35, N-(4-acetylaminophenyl)-N-methyl-1,2-dihydro-4-hydroxy-1-methyl-2-oxo-quinoline-3-carboxamide]		significant enhancing effect	potentiate significantly	
CC(C)(S)[C@@H](N)C(=O)O [Penicillamine, penicillamine, reference compound]				change in vivo at 40 mg/kg [1]: 0%; change in vivo at 10 mg/kg [3]: 17%
C=CCn1c(=O)c(C(=O)N(C)c2ccc(N(C)C)cc2)c(O)c2ccccc21 [20:39, N-(4-dimethylaminophenyl)-N-methyl-1-allyl-1,2-dihydro-4-hydroxy-2-oxo-quinoline-3-carboxamide]		significant enhancing effect	potentiate significantly	
CN(C(=O)c1c(O)c2ccccc2n(C)c1=O)c1ccc(O)cc1 [21:11, N-(4-hydroxyphenyl)-N-methyl-1,2-dihydro-4-hydroxy-1-methyl-2-oxo-quinoline-3-carboxamide]	significant potentiating effect			change in vivo at 10 mg/kg [3, 4]: 34%
CN(C(=O)c1c(O)c2ccccc2n(C)c1=O)c1ccc(N2CCCCC2)cc1 [20:9, N-(4-piperidinophenyl)-N-methyl-1,2-dihydro-4-hydroxy-1-methyl-2-oxo-quinoline-3-carboxamide]		significant enhancing effect	potentiate significantly	
CN(C(=O)c1c(O)c2ccccc2n(C)c1=O)c1cnccn1 [21:23, N-methyl-N-pyrazinyl-1,2-dihydro-4-hydroxy-1-methyl-2-oxo-quinoline-3-carboxamide]	significant potentiating effect	significant enhancing effect		
CN(C)c1ccc(N(C)C(=O)c2c(O)c3cccc4c3n(c2=O)CC4)cc1 [21:30, N-(4-dimethylaminophenyl)-N-methyl-1,2-dihydro-1,8-ethylene-4-hydroxy-2-oxo-quinoline-3-carboxamide]	significant potentiating effect	significant enhancing effect		
Cc1cc(N(C)C(=O)c2c(O)c3cc(Cl)ccc3n(C)c2=O)sn1 [21:24, N-methyl-N-(3-methyl-5-isothiazolyl)-6-chloro-1,2-dihydro-4-hydroxy-1-methyl-2-oxo-quinoline-3-carboxamide]	significant potentiating effect	significant enhancing effect		
CN(C(=O)c1c(O)c2cccc3c2n(c1=O)CC3)c1nccs1 [21:31, N-methyl-N-2-thiazolyl-1,2-dihydro-1,8-ethylene-4-hydroxy-2-oxo-quinoline-3-carboxamide]	significant potentiating effect	significant enhancing effect		
CCn1c(=O)c(C(=O)N(C)c2ccccc2)c(O)c2ccccc21 [20:10, N-methyl-N-phenyl-1,2-dihydro-1-ethyl-4-hydroxy-2-oxo-quinoline-3-carboxamide]		significant enhancing effect	potentiate significantly	
CCN(C(=O)c1c(O)c2cccc3c2n(c1=O)CCC3)c1ccccn1 [21:33, N-ethyl-N-2-pyridyl-1,2-dihydro-4-hydroxy-2-oxo-1,8-trimethylene-quinoline-3-carboxamide]	significant potentiating effect	significant enhancing effect		
CN(C(=O)c1c(O)c2cccc3c2n(c1=O)CC3)c1cnccn1 [21:20, N-methyl-N-pyrazinyl-1,2-dihydro-1,8-ethylene-4-hydroxy-2-oxo-quinoline-3-carboxamide]		significant enhancing effect	potentiate significantly	
COc1ccc(-n2c(=O)c(C(=O)N(C)c3ccccc3)c(O)c3ccccc32)cc1 [20:34, N-methyl-N-phenyl-1-(4-methoxyphenyl)-1,2-dihydro-4-hydroxy-2-oxo-quinoline-3-carboxamide]		significant enhancing effect	potentiate significantly	
CCCCN(C(=O)c1c(O)c2ccccc2n(C)c1=O)c1ccccc1 [21:8, N-(n-butyl)-N-phenyl-1,2-dihydro-4-hydroxy-1-methyl-2-oxo-quinoline-3-carboxamide]		significant enhancing effect	potentiate significantly	
Cn1c(=O)c(C(=O)Nc2ccccc2Cl)c(O)c2ccccc21 [1:8, N-/2-chlorophenyl/-1,2-dihydro-4-hydroxy-1-methyl-2-oxo-quinoline-3-carboxamide]				change in vivo at 80 mg/kg [2]: 21%; change in vivo at 10 mg/kg [3, 4]: 27%
